Measurements from PubChem BioAssay AID1159563 (GlaxoSmithKline (GSK), 2015).
Activity calls are given as the source filed them. No rule for the calls is given here.

The compounds below were run on HepG2 cytotoxicity (assay: human hepatoma cell viability loss – cytotoxicity control (AID 1159563)).

SMILES | IC50
CCCCNc1nccc(-c2c(-c3ccc(F)cc3)nn3c(N4CCOCC4)cccc23)n1 | > 100 µM (inactive)
Cc1[nH]nc(C(F)(F)F)c1NC(=O)CCn1cc(Cl)c([N+](=O)[O-])n1 | > 100 µM (inactive)
COc1ccc(C)cc1-c1csc(NC(=O)C(C)n2ccnc2)n1 (centres undefined) | > 100 µM (inactive)
O=C(CN(c1cccc(C(F)(F)F)c1)S(=O)(=O)c1ccc(Cl)cc1)NCc1ccc(F)c(F)c1 | > 100 µM (inactive)
NC(=O)c1ncccc1Nc1nc(NC2CCC(O)CC2)ncc1Br (centres undefined) | > 100 µM (inactive)
COCc1cc(Nc2ccccc2)nc(-c2ccccn2)n1 | 100 µM
O=C(c1cccc(Cl)c1Cl)N1CCn2c1nc(-c1ccncc1)cc2=O | > 100 µM (inactive)
COc1ccc(S(=O)(=O)Nc2ccc(CN3CCN(C(=O)c4cccc(C#N)c4)CC3)cc2)cc1 | > 100 µM (inactive)
O=C(Nc1nc(-c2ccccn2)cs1)c1ccc(S(=O)(=O)N2CCCCC2)cc1 | 63 µM
COc1ccc(S(=O)(=O)NC(C)C)cc1Nc1ncc(-c2cccc(F)c2)cn1 | > 100 µM (inactive)
Cc1ccc(Nc2nc(-c3ccccn3)cc(N3CCCC(O)C3)n2)cc1 (centres undefined) | 40 µM
O=C(Nc1cccc(Cl)c1)Nc1ccc([N+](=O)[O-])cc1Cl | 32 µM
O=c1cc(NCCCNCc2c[nH]c3ccc(Br)cc23)[nH]c2ccccc12 | > 100 µM (inactive)
CC(C)c1nn(-c2nc(N)nc(-c3ccccn3)n2)c(N)c1C1CCCCC1 | 20 µM
COc1ccc([N+](=O)[O-])cc1NC(=O)Nc1cccc(Cl)c1 | > 100 µM (inactive)
O=C(C1CCCCC1)N1CCN(c2nnc(-c3ccccc3)c3ccccc23)CC1 | > 100 µM (inactive)
COc1ccc(NS(=O)(=O)c2cc(-c3cc(C)[nH]n3)ccc2C)cc1OC | > 100 µM (inactive)
COc1ccc(Nc2nccc(N(C)c3n[nH]c4c(F)cccc34)n2)cc1S(C)(=O)=O | 20 µM
CCN(CC)S(=O)(=O)c1ccc(C)c(NC(=O)c2cc(Cl)c3c(c2)OCO3)c1 | > 100 µM (inactive)
CC(C)(C)Nc1nc(-c2ccccn2)nc2ccccc12 | 20 µM
Cc1cc2nc(N3CC[C@H]3C(N)=O)nc(Nc3cc(C4CC4)[nH]n3)c2s1 | > 100 µM (inactive)
O=C(NCCNc1noc(-c2ccc([N+](=O)[O-])cc2)n1)c1ccc(Cl)cc1 | > 100 µM (inactive)
CC(c1ccc2c(c1)CCCC2)N(C)c1ncc2c(N)nc(N)nc2n1 (centres undefined) | 50 µM
O=C(Nc1nccs1)c1ccccc1Cn1cc([N+](=O)[O-])cn1 | > 100 µM (inactive)
O=C(NCC(c1cccnc1)N1CCc2ccccc2C1)C(=O)Nc1cccc(Cl)c1 (centres undefined) | > 100 µM (inactive)

SMILES | IC50
CCOc1ccc(Nc2ccc(S(=O)(=O)N3CCN(C)CC3)cc2[N+](=O)[O-])cc1OCC | > 100 µM (inactive)
COc1ccc(Nc2nc(-c3ccccn3)cs2)c(OC)c1 | > 100 µM (inactive)
Cc1cccc(NS(=O)(=O)c2ccc3c(c2)C(=O)c2cc(S(=O)(=O)Nc4cccc(C)c4C)ccc2-3)c1C | > 100 µM (inactive)
O=C(Cc1ccccc1)Nc1[nH]nc2sc(C(=O)NC3CCCC3)cc12 | 50 µM
COc1ccc(-c2cc(C)no2)cc1S(=O)(=O)Nc1ccc(F)c(Cl)c1 | 79 µM
Cc1cc2cncn2c(C2CCCCN2C(=O)c2cccs2)n1 (centres undefined) | > 100 µM (inactive)
CC(C)CC(=O)Nc1cc(C2CC2)nn1-c1nc2c(c(=O)[nH]1)CCCC2 | > 100 µM (inactive)
Cc1cnc(Nc2cc(Cc3ccccc3)nc(NC3CCC(O)CC3)n2)s1 (centres undefined) | 25 µM
COCc1cnc2c(c1SCc1c(F)cccc1Cl)c(=O)n(C)c(=O)n2C | > 100 µM (inactive)
Cc1[nH]nc(Nc2ccnc3[nH]ccc23)c1C | > 100 µM (inactive)
Nc1nonc1-c1nc2cncc(C(=O)N3CC[C@H](N)C3)c2n1CC1CC1 | > 100 µM (inactive)
O=C(c1cc2cc(Cl)ccc2[nH]1)N1CCCCC1c1cccnc1 (centres undefined) | 40 µM
CCCNC(=O)Nc1cccc(-c2nc3ncccc3o2)c1 | > 100 µM (inactive)
CN(CCOc1ccc(Cl)cc1)Cc1nc(N)nc(N(C)C)n1 | > 100 µM (inactive)
N#Cc1ccc(C(=O)Nc2cccc(-c3cccc(CN4CCC(O)CC4)c3)c2)cc1 | 40 µM
CN(Cc1ccc(F)cc1)c1ccc(OCC(=O)N2CCCCC2c2cccnc2)nn1 (centres undefined) | > 100 µM (inactive)
Cc1nc2c(-c3ncn[nH]3)cc(NC(=O)Cc3ccccc3)cn2c1C | 16 µM
Cc1ccc2onc(Nc3ccnc(Nc4cccc(S(C)(=O)=O)c4)n3)c2c1 | 50 µM
Oc1cccnc1-c1n[nH]c(Cc2ccccc2)n1 | 79 µM
CNc1cc(C)nc(C2CN(C(=O)c3n[nH]c4ccccc34)CCO2)c1 (centres undefined) | > 100 µM (inactive)
CC(=O)NCCNc1cc(-c2ccnc(Nc3cccc(Cl)c3)n2)ccn1 | 25 µM
Cc1ccc2c(c1)-c1onc(C(=O)N3CCCCC3c3cccnc3)c1CO2 (centres undefined) | 50 µM
O=C(COc1ncnc2cc([N+](=O)[O-])ccc12)NC(=O)NC1CCCCC1 | > 100 µM (inactive)
COc1cccc(S(=O)(=O)Nc2ccc3c(c2)CC(N2CCC(NC(=O)C4CC4)CC2)C3)c1 (centres undefined) | > 100 µM (inactive)
